As usually defined, the melting point is the temperature, or range, at which the solid turns liquid.

For `CCCCCCCCCCCCCCCCCC(=O)OCC(COC(=O)CCCCCCCCCCCCCCCCC)OC(=O)CCCCCCCCCCCCCCCCC`, the melting point came out at 55 °C.

As to `CC(=O)CC(C)(C)O`, the melting point was -42.8 °C.

Regarding `CCCCCCCCCCOC(C)=O`, the melting point is -15 °C.

`O=C(Oc1cccc(N=Nc2cccc(OC(=O)c3ccccc3)c2)c1)c1ccccc1`: the melting point came out at 180 °C.

For `O=C(OOC(=O)c1ccccc1)c1ccccc1`, the melting point amounted to 105 °C.

Molecule `Cc1ccc(C(N)=S)cc1` displayed a melting point of 163 to 168 °C.

`CC(=O)c1csc([N+](=O)[O-])c1` gave a melting point of 59 to 61 °C.

Molecule `CC(C)(C)OC(=O)n1cccc1C=O` gave a melting point of 51 °C.

Consider `CN(C)CCC=C1c2ccccc2CSc2ccccc21`, for which the melting point was determined as 56 °C.

In turn, `CC(=O)Nc1cc(C)no1` had a melting point of 161 to 162 °C.

In turn, `Cc1onc(-c2c(Cl)cccc2Cl)c1CCl` came in with a melting point of 61 to 63 °C.

In turn, `Nc1nsc2ccc([N+](=O)[O-])cc12` returned a melting point of 200 °C.

Regarding `CC(=O)OCC1=C(C(=O)O)N2C(=O)C(N)C2SC1` (stereo not given), the melting point stood at 300 °C.

`COc1ccc(F)c(CBr)c1F`: the melting point came out at 55 °C.

`COc1nsnc1NS(=O)(=O)c1ccc(N)cc1` showed a melting point of 150 °C.

On to `NCc1ccc(N2CCOCC2)cc1`, for which the melting point amounted to 50 °C.

On to `NC(=O)c1c(F)cccc1Cl`, for which the melting point came to 141 °C.

`CCOc1cc(OCC)c(C(=O)CCC(=O)O)cc1OCC` showed a melting point of 150 °C.

Molecule `CCCC(/C=C1\C(=O)C2(C)CCC1C2(C)C)(/C=C1\C(=O)C2(C)CCC1C2(C)C)C(=O)OCC` (stereo not given) gave a melting point of 161 °C.

`O=Cc1cccc(Cn2cncn2)c1`: the melting point fell in the range of 54 to 56 °C.

`COc1cc(C2Nn3c(nnc3-c3ccccc3OC)S2)ccc1O` (stereo not given) gave a melting point of 137 °C.

Take `Cc1cccc(C)c1N(Cn1cccn1)C(=O)CCl`: the melting point came to 85 °C.

Turning to `O=C1OCC(O)C1O` (stereo not given), the melting point lay within 99 to 102 °C.

In turn, `O=C(O)c1ccccc1P(c1ccccc1)c1ccccc1` gave a melting point of 178 °C.

Take `CC1OC(n2ccc(NC(=O)c3ccc(NC(=O)C(C)(N)CO)cc3)nc2=O)CCC1OC1OC(C)C(N(C)C)C(O)C1O` (stereo not given): the melting point is 167 °C.

Molecule `c1ccc(Cc2ccc3ccccc3c2)cc1` had a melting point of 58 °C.

Consider `NC(CO)C(=O)O` (racemic), for which the melting point was 240 °C.

Molecule `Cn1c(=O)[nH]c2ccccc21` came in with a melting point of 192 to 196 °C.

For the molecule `O=S(=O)(Cl)c1cc(Cl)cc(Cl)c1`, the melting point was 53 to 57 °C.

The molecule `Nc1ccc(Cl)c(C(=O)O)c1` had a melting point of 188 °C.

Molecule `FC(F)(F)c1cc(Br)ccc1Br` came in with a melting point of 49 °C.

`CCOC(=O)c1sc(SCc2ccccc2)c2c1CCCC2=O` registered a melting point of 139 to 141 °C.

On to `O=C1NC(=O)C(=NNc2ccc(Cl)cc2)C(=O)N1`, for which the melting point is 353 °C.

Take `ClCCCCCCCCCCCl`: the melting point turned out to be 15.6 °C.

Regarding `CCOC(=O)c1[nH]c(C)c(CC)c1C`, the melting point is 87 to 88 °C.

`CC(CO)C1=C(O)C(=O)C2=C(CC(O)C3C(C)(C)CCCC23C)C1=O` (stereo not given): the melting point was 186 °C.

Turning to `CN(C(=S)Cl)c1ccccc1`, the melting point lay within 31 to 34 °C.

Molecule `NC(=O)c1cc(Cl)cc(Cl)c1` displayed a melting point of 160 to 162 °C.

In turn, `CCCCc1ccc(O)cc1` gave a melting point of 22 °C.

Molecule `Cc1ccccc1NC(=S)/C(=N\NC(=N)N)c1ccccc1` yielded a melting point of 206 to 207 °C.

In the case of `Cc1cccc(CC(=O)O)c1`, the melting point stood at 64 °C.

The molecule `CCOC(=O)NNC(=O)NC1CCCCC1` had a melting point of 115 to 117 °C.

In the case of `NC(=O)CC(O)C(=O)O` (stereo not given), the melting point was determined as 148 °C.

Take `O=C(Nc1ccccc1)c1cc2ccccc2cc1O`: the melting point worked out at 248 °C.

With `CCOC(=O)c1ccc(CBr)cc1`, the melting point came to 30.5 °C.

The molecule `CN1CCN(c2ccccc2C(=O)O)CC1` showed a melting point of 67 to 72 °C.

For `C[C@]12CC[C@H]3O[C@H]3[C@@H]1CC[C@@H]1[C@@H]2CC[C@]2(C)C(=O)CC[C@@H]12`, the melting point is 158 °C.

`Cc1cc(-c2cc(C)c(N)c(C)c2)cc(C)c1N` came in with a melting point of 170 °C.

Consider `Clc1ccc(C2(Cn3cncn3)CC(Br)CO2)c(Cl)c1` (stereo not given), for which the melting point was determined as 84 °C.

As to `O=C(C(C(=O)N1CCCCC1)c1ccccc1)N1CCCCC1`, the melting point was found to be 144 °C.

For the molecule `COc1cc(OC)c(C#N)c(OC)c1`, the melting point was in the range of 142 to 145 °C.

Turning to `O=C(O)c1cccc(C(=O)O)c1O`, the melting point was 244 °C.

Consider `COC(=O)c1c(C=O)c(C)n(C)c1C`, for which the melting point was in the range of 124 to 127 °C.

As to `Oc1ccc2cc(Br)ccc2c1Br`, the melting point fell in the range of 105 to 107 °C.

`O=S(=O)(Cl)c1ccc(-c2ccccc2)nc1` showed a melting point of 106 to 108 °C.

Consider `Cc1ccc(-c2csc3nc(C(F)(F)F)cc(=O)n23)cc1`, for which the melting point was 186 °C.

For the molecule `O=C(Cl)c1ccc(-c2ccccn2)s1`, the melting point is 140 to 141 °C.

Molecule `CC1Cc2ccccc2CC1C` (stereo not given) had a melting point of -5 °C.

The molecule `Cc1cc(C)n(C)n1` yielded a melting point of 35.5 °C.

As to `COc1ccc(Br)c(OC)c1C(=O)O`, the melting point fell in the range of 146 to 148 °C.

Molecule `N=C(N)NCCCC(NC(=O)c1ccccc1)C(=O)O` (stereo not given) registered a melting point of 285 °C.

Regarding `CC(=O)c1ccc(C)nc1`, the melting point is 17.6 °C.

In the case of `C[Si](C)(C)c1cnc([Si](C)(C)C)s1`, the melting point was 55 °C.

On to `CCSC(SCC)C(O)C(O)C(O)CO` (stereo not given), for which the melting point was determined as 127 °C.

`CCOC(=O)CC(=O)OCC`: the melting point is -50 °C.

`NCCCNCCO` came in with a melting point of 15 to 19 °C.

`Cc1cc2c(N)cccc2nn1` displayed a melting point of 189 to 191 °C.

`O=C(O)Cc1ccc2c(c1)OCO2` came in with a melting point of 128 to 132 °C.

`CN(C)C(=S)SSC(=S)N(C)C` yielded a melting point of 156 °C.

In the case of `Oc1noc2cc(Cl)ccc12`, the melting point is 215 to 217 °C.

`N#CCc1ccc(OS(=O)(=O)c2cc(Cl)cc(Cl)c2)cc1`: the melting point was 81 to 83 °C.

The molecule `C#CC#C` gave a melting point of -36.4 °C.

Molecule `CC(=O)N(C(C)=O)c1ccc(N=Nc2ccccc2C)cc1C` gave a melting point of 75 °C.

As for `O=S(=O)(Cl)c1ccc2c(c1)OCCO2`, the melting point is 66 to 68 °C.

In turn, `N#C/C(=C\c1ccc(Cl)cc1Cl)c1nc(-c2cccc3ccccc23)cs1` returned a melting point of 132 °C.

`CC(C)(C)c1cc([N+](=O)[O-])c(O)c([N+](=O)[O-])c1`: the melting point stood at 95 °C.

Consider `CC1(C)C(=O)N(O)C(C)(C)C(=O)N1O`, for which the melting point was 300 to 303 °C.

With `C=CC1CN2CCC1CC2c1[nH]c2ccccc2c1CCO` (stereo not given), the melting point stood at 186 °C.

Take `CC1=C(c2ccccc2)c2ccccc2C1`: the melting point fell in the range of 58 to 58.5 °C.

On to `OC1CCCCCCCCCCCCCC1`, for which the melting point stood at 80.5 °C.

`O=Cc1ccc(-c2ccccc2)nc1` had a melting point of 57 to 59 °C.

Molecule `O=C(N[C@@H]1CCCC[C@@H]1C(=O)O)c1ccccc1` gave a melting point of 204 to 208 °C.

In turn, `Nc1ncnc2c1ncn2Cc1c(F)cccc1Cl` returned a melting point of 245 °C.

Molecule `COC[C@H]1CCCN1C(=S)SCC(=O)c1ccc(Br)cc1` had a melting point of 89.5 °C.

`Cc1c(F)ccc(C(=O)O)c1Cl` yielded a melting point of 188 °C.

`C=CCCCCCCCCC=O` returned a melting point of 7 °C.

`CCCCCCCCCCCC(=O)OC1OC(CO)C(OC2OC(CO)C(O)C(O)C2O)C(O)C1O` (stereo not given) yielded a melting point of 193 to 197 °C.

Turning to `Cc1c(CO)cnn1-c1ccccc1`, the melting point was in the range of 88 to 89 °C.

The molecule `CC12CCC(=O)C=C1CCC1C2CCC2(C)CCCC12O` (stereo not given) yielded a melting point of 180 °C.

For `O=C1C(=Cc2ccccc2)N=C(N2CCOCC2)N1c1ccccc1`, the melting point is 235 °C.

For `O=c1occc2ccccc12`, the melting point worked out at 47 °C.

`O=Cc1c(F)c(F)c(F)c(F)c1F` yielded a melting point of 25.5 °C.

`O=Cc1cccc2nsnc12` yielded a melting point of 99 to 101 °C.

For `COc1cc2c(cc1OC)C(=S)NCC2`, the melting point was 223 to 226 °C.

Consider `FC(F)(Cl)CCl`, for which the melting point was -101 °C.

`COc1ccc(C)cc1S(=O)(=O)Cl` returned a melting point of 82 to 84 °C.

As for `CC(C)=NN(c1ccccc1)P(=O)(N1CC1)N1CC1`, the melting point was determined as 120 °C.

As for `ON=C(O)c1ccccc1O`, the melting point is 177 to 185 °C.

For `N#C/C(=C\c1ccc(Cl)cc1)c1nc2ccccc2s1`, the melting point is 150 °C.

In turn, `Oc1ccccc1N=CC=Nc1ccccc1O` yielded a melting point of 201 to 205 °C.

Take `COc1ccc2c(c1)c(C=O)cn2C`: the melting point is 135 °C.

On to `Cc1ccc2cc[nH]c2c1`, for which the melting point was determined as 31 °C.

For `O=C(O)c1cccc(Cn2cccn2)c1`, the melting point was in the range of 151 to 152 °C.

`CSc1[nH]nc(N)c1C#N` returned a melting point of 190 °C.

The molecule `O=C(c1ccccc1)c1ccccc1Cl` had a melting point of 46 °C.

The molecule `CCCC(CC)C1(CC)C(=O)NC(=O)NC1=O` (stereo not given) showed a melting point of 122 °C.

`O=C(/C=C/c1ccc(-c2ccc(Br)cc2)o1)c1ccccc1` displayed a melting point of 141 to 142 °C.

For the molecule `Clc1cccc2ncccc12`, the melting point worked out at 45 °C.

With `CCOC(=O)c1cc(Cl)cc(Cl)c1`, the melting point was in the range of 35 to 36 °C.

`Fc1ccc2c(c1)Cc1ccccc1-2`: the melting point was 98 °C.

Take `O=C1NC2C=CC1C2` (single isomer, unassigned; (-)): the melting point lay in the range of 92 to 100 °C.

For `O=Cc1ccc(C=O)s1`, the melting point was in the range of 114 to 117 °C.

The molecule `O=C(Cl)c1csc2ccc(Br)cc12` showed a melting point of 125 to 126 °C.

As for `Cc1c(Br)cc(C(=O)Cl)c(C)c1C`, the melting point is 60 to 62 °C.

In turn, `CCOC(=O)c1cccc(-c2nccs2)c1` had a melting point of 50 to 52 °C.

(Values after a melting point compilation (Tetko et al.).)
